Measurements as given in publication PMC12198282, “Application of a high-density microelectrode array assay using a 3D human iPSC-derived brain microphysiological system model for in vitro neurotoxicity screening of environmental compounds” (Archives of Toxicology, 2025).
Where two headings read alike, the source gives them in different places.

Key:
[1] = test system: 2D rat cortical cultures; details: cytotoxicity LDH, cited from earlier work
[2] = test system: human iPSC-derived 3D BrainSpheres; assay: BrainSphere MEA assay (HD-MEA, 13-day exposure, concentration-response); type: cell-based; details: for EC (benchmark response 1.349 SD): 312 h
Procedure: A volume of 1 ml of Tergazyme (1% solution in deionized water) was added to each well of the MaxTwo 6-Well Plate (MaxWell Biosystems) and incubated overnight under constant gyratory shaking (88 RPM) at 37 °C and 5% CO2. The next day, Tergazyme solution was removed, and plates were washed with distilled water and ethanol. After remaining ethanol was evaporated, wells were washed with PBS. Then, 200 µl of Poly-D-Lysine (Gibco, A38904 - 01) was added on top of the electrodes and incubated at 37 °C and 5% CO2 for 3 h (humidified). Poly-D-Lysine was then removed, and wells were coated with 100 µl of 0.1 mg/ml laminin coating solution (Sigma-Aldrich, L2020 - 1 mg) and incubated for 2 h at 37 ℃ and 5% CO2 (humidified). The laminin was removed after incubation. Using a 1 ml micropipette, 1 ml of medium containing BrainSpheres (7 weeks differentiated), approximately 25 BrainSpheres per ml, was plated on top of the HD-MEA chip (Fig. 1A). Afterwards, the plate was placed in an incubator at 37 °C and 5% CO2 and moved in circles to accumulate the BrainSpheres on top of the electrode area (Fig. 1A). The plate was kept in an incubator (humidified) for 2 days to allow attachment of the BrainSpheres with no gyratory shaking of the plates.
The MaxTwo high-density microelectrode array system (MaxWell Biosystems AG, Zurich, Switzerland) was used to measure neural activity with MaxTwo 6-well plates, where every well includes an integrated chip with 26,400 platinum electrodes arranged in an area of 3.85 × 2.10 mm^2 ([…]) (Muller et al. [2015]). The data were recorded and analyzed with the MaxLab Live Software (version 22.2.22). First, the MaxLab live ActivityScan Assay was used to identify the activity and positioning of the BrainSpheres on the array by scanning all the 26,400 electrodes in 29 configurations in a well (Assay Parameters: Configuration = Full; Recording time per configuration = 60 s (s)). The settings gain = 512, high-pass-filter (HPF): ~ 1 Hz and spike threshold = 5 X root-mean square (RMS) noise were used for all HD-MEA recordings. Circular regions of interest (ROI) were manually selected in the Activity Map where neuronal activity was apparent by an increased activity (Fig. 2). Over the course of the 13-day experiment, the same selected regions and electrodes were measured using the MaxLab Live Network Assay (600 s recording time).
A custom analysis framework was used to extract the MaxLab Live neuronal metrics for the individual BrainSpheres. For this, electrodes comprising a single ROI (i.e., individual BrainSphere; Fig. 2D) were grouped using distance-based clustering (fcluster method of Scipy library, Python 3.7) and neural metrics were calculated for the clustered electrodes for every ROI separately. Figure 2E presents a raster plot illustrating the activity associated with individual Regions of Interest (ROIs). […] Ten MaxLab Live neural metrics (endpoints) were evaluated from the MaxLab live ActivityScan and Network Assay in this study. See Table 3 for the endpoint definitions, tuned parameters, and activity type (general versus network connectivity).
The BrainSphere MEA assay measured changes in neural activity during a 13-day chemical exposure. The first recording day of the concentration–response screening protocol (day of exposure (DOE) 0) occurred after 7 weeks of BrainSphere differentiation, 48 h after plating on HD-MEA plates (Fig. 1B). The study included at least three biological replicates (one well per plate) from separate experiments (e.g., three different plates on three different days) and each well included multiple BrainSpheres which were considered technical replicates.

[3] = test system: 2D rat cortical cultures; details: cytotoxicity AlamarBlue, cited from earlier work
[4] = AUC over 13-day exposure, tcplfit2
[5] = tcplfit2 BMD at benchmark response (1.349*SD of baseline controls)
[6] = tcplfit2 output ACC, activity cutoff in Supplemental Table 1

CC1(C)[C@H](C(=O)O[C@H](C#N)c2cccc(Oc3ccccc3)c2)[C@@H]1C=C(Br)Br [Deltamethrin]
hitc CCTE_Shafer_MEA_dev_LDH ([1]; rNFA mc5 hit call): 0
EC50 ([2]; 5th percentile across active AC50 values per chemical, read-out: Minimum potency): 1.6 µM
Difference of minimum potency between BrainSphere MEA assay and rNFA ([2]; 5th percentile of AC50 values by chemical, above 0.5 = more potent in the rNFA): ≤ 0.5 log10 µM
hitc Mean.Spheroid.Burst.Duration [2, 4]: 1
hitc Mean.Spheroid.Burst.ISI [2, 4]: 1
hitc Mean.Spheroid.Burst.Peak.Firing.Rate [2, 4]: 1
hitc Mean.Spheroid.Firing.Rate [2, 4]: 1
hitc Mean.Spheroid.IBI [2, 4]: 1
hitc Mean.Spheroid.Nonburst.ISI [2, 4]: 1
hitc Mean.Spheroid.Spikes.per.Burst [2, 4]: 1
hitc Mean.Spheroid.Spikes.per.Burst.per.Electrode [2, 4]: 1
hitc Spheroid.Burst.Frequency [2, 4]: 1
hitc Spheroid.Spike.Amplitude.90th.Percentile [2, 4]: 1
EC50 ([2]; Homo sapiens, 5th percentile across active AC50 values per chemical, read-out: Minimum potency): 1 µM
EC (benchmark response 1.349 SD) ([2]; Homo sapiens, tcplfit2 BMD at benchmark response (1.349*SD of baseline controls), read-out: BMD Mean.Spheroid.Burst.ISI): 7.6 µM
EC (benchmark response 1.349 SD) ([2]; Homo sapiens, tcplfit2 BMD at benchmark response (1.349*SD of baseline controls), read-out: BMD Mean.Spheroid.Nonburst.ISI): 9.4 µM
AC50 ([2]; Homo sapiens, concentration at 50% maximal activity, Supplement 3 prints it also for curves with hit call 0, read-out: ac50 Mean.Spheroid.Burst.Duration): 3.3 µM
AC50 ([2]; Homo sapiens, concentration at 50% maximal activity, Supplement 3 prints it also for curves with hit call 0, read-out: ac50 Mean.Spheroid.Burst.ISI): 8.4 µM
AC50 ([2]; Homo sapiens, concentration at 50% maximal activity, Supplement 3 prints it also for curves with hit call 0, read-out: ac50 Mean.Spheroid.Burst.Peak.Firing.Rate): 3.8 µM
AC50 ([2]; Homo sapiens, concentration at 50% maximal activity, Supplement 3 prints it also for curves with hit call 0, read-out: ac50 Mean.Spheroid.Firing.Rate): 3.5 µM
AC50 ([2]; Homo sapiens, concentration at 50% maximal activity, Supplement 3 prints it also for curves with hit call 0, read-out: ac50 Mean.Spheroid.IBI): 10 µM
AC50 ([2]; Homo sapiens, concentration at 50% maximal activity, Supplement 3 prints it also for curves with hit call 0, read-out: ac50 Mean.Spheroid.Nonburst.ISI): 9.8 µM
AC50 ([2]; Homo sapiens, concentration at 50% maximal activity, Supplement 3 prints it also for curves with hit call 0, read-out: ac50 Mean.Spheroid.Spikes.per.Burst): 1.9 µM
AC50 ([2]; Homo sapiens, concentration at 50% maximal activity, Supplement 3 prints it also for curves with hit call 0, read-out: ac50 Mean.Spheroid.Spikes.per.Burst.per.Electrode): 1.4 µM
AC50 ([2]; Homo sapiens, concentration at 50% maximal activity, Supplement 3 prints it also for curves with hit call 0, read-out: ac50 Spheroid.Burst.Frequency): 5.9 µM
AC50 ([2]; Homo sapiens, concentration at 50% maximal activity, Supplement 3 prints it also for curves with hit call 0, read-out: ac50 Spheroid.Spike.Amplitude.90th.Percentile): 4 µM
EC50 ([2]; Homo sapiens, mean across active AC50 values per chemical, read-out: Mean potency): 4.45 µM
AC50 ([2]; concentration at 50% maximal activity, Supplement 3 prints it also for curves with hit call 0, read-out: ac50 Mean.Spheroid.Burst.Duration): 3.31 µM
AC50 ([2]; concentration at 50% maximal activity, Supplement 3 prints it also for curves with hit call 0, read-out: ac50 Mean.Spheroid.Burst.ISI): 8.39 µM
AC50 ([2]; concentration at 50% maximal activity, Supplement 3 prints it also for curves with hit call 0, read-out: ac50 Mean.Spheroid.Burst.Peak.Firing.Rate): 3.77 µM
AC50 ([2]; concentration at 50% maximal activity, Supplement 3 prints it also for curves with hit call 0, read-out: ac50 Mean.Spheroid.Firing.Rate): 3.49 µM
AC50 ([2]; concentration at 50% maximal activity, Supplement 3 prints it also for curves with hit call 0, read-out: ac50 Mean.Spheroid.IBI): 10.4 µM
AC50 ([2]; concentration at 50% maximal activity, Supplement 3 prints it also for curves with hit call 0, read-out: ac50 Mean.Spheroid.Nonburst.ISI): 9.81 µM
AC50 ([2]; concentration at 50% maximal activity, Supplement 3 prints it also for curves with hit call 0, read-out: ac50 Mean.Spheroid.Spikes.per.Burst): 1.85 µM
AC50 ([2]; concentration at 50% maximal activity, Supplement 3 prints it also for curves with hit call 0, read-out: ac50 Mean.Spheroid.Spikes.per.Burst.per.Electrode): 1.4 µM
AC50 ([2]; concentration at 50% maximal activity, Supplement 3 prints it also for curves with hit call 0, read-out: ac50 Spheroid.Burst.Frequency): 5.88 µM
AC50 ([2]; concentration at 50% maximal activity, Supplement 3 prints it also for curves with hit call 0, read-out: ac50 Spheroid.Spike.Amplitude.90th.Percentile): 3.97 µM
EC50 ([2]; mean across active AC50 values per chemical, read-out: Mean potency): 5.23 µM
Percent active ([2]; metrics active out of the total number of metrics screened): 100%
BMD Mean.Spheroid.Burst.Duration [2, 5]: 1.9 µM
BMD Mean.Spheroid.Burst.Peak.Firing.Rate [2, 5]: 2.4 µM
BMD Mean.Spheroid.Firing.Rate [2, 5]: 3.6 µM
BMD Mean.Spheroid.IBI [2, 5]: 9.6 µM
BMD Mean.Spheroid.Spikes.per.Burst [2, 5]: 1.2 µM
BMD Mean.Spheroid.Spikes.per.Burst.per.Electrode [2, 5]: 0.69 µM
BMD Spheroid.Burst.Frequency [2, 5]: 6 µM
BMD Spheroid.Spike.Amplitude.90th.Percentile [2, 5]: 1.6 µM
ACC Mean.Spheroid.Burst.Duration [2, 6]: 1.7 µM
ACC Mean.Spheroid.Burst.ISI [2, 6]: 7 µM
ACC Mean.Spheroid.Burst.Peak.Firing.Rate [2, 6]: 2.2 µM
ACC Mean.Spheroid.Firing.Rate [2, 6]: 5.2 µM
ACC Mean.Spheroid.IBI [2, 6]: 10 µM
ACC Mean.Spheroid.Nonburst.ISI [2, 6]: 9.6 µM
ACC Mean.Spheroid.Spikes.per.Burst [2, 6]: 2 µM
ACC Mean.Spheroid.Spikes.per.Burst.per.Electrode [2, 6]: 0.92 µM
ACC Spheroid.Burst.Frequency [2, 6]: 5.1 µM
ACC Spheroid.Spike.Amplitude.90th.Percentile [2, 6]: 2.2 µM
Hits ([2]; total number of active endpoints out of 10 MEA activity metrics, 13-day exposure): 10
hitc CCTE_Shafer_MEA_dev_AB ([3]; rNFA mc5 hit call): 0

CN(C)C(=O)C(CCN1CCC(O)(c2ccc(Cl)cc2)CC1)(c1ccccc1)c1ccccc1 [Loperamide]
AC50 ([1]; read-out: ac50 CCTE_Shafer_MEA_dev_LDH, rNFA mc5): 2.94 µM
ACC Mean.Spheroid.Burst.Duration [2]: 0.076 µM
ACC Mean.Spheroid.Burst.ISI [2]: 0.019 µM
ACC Mean.Spheroid.Burst.Peak.Firing.Rate [2]: 0.065 µM
ACC Mean.Spheroid.Firing.Rate [2]: 0.036 µM
ACC Mean.Spheroid.IBI [2]: 0.9 µM
ACC Mean.Spheroid.Nonburst.ISI [2]: 0.97 µM
ACC Mean.Spheroid.Spikes.per.Burst [2]: 0.08 µM
ACC Mean.Spheroid.Spikes.per.Burst.per.Electrode [2]: 0.082 µM
ACC Spheroid.Burst.Frequency [2]: 0.026 µM
ACC Spheroid.Spike.Amplitude.90th.Percentile [2]: 6.6 µM
BMD Mean.Spheroid.Burst.Duration [2]: 0.087 µM
BMD Mean.Spheroid.Burst.Peak.Firing.Rate [2]: 0.071 µM
BMD Mean.Spheroid.Firing.Rate [2]: 0.025 µM
BMD Mean.Spheroid.IBI [2]: 0.83 µM
BMD Mean.Spheroid.Spikes.per.Burst [2]: 0.054 µM
BMD Mean.Spheroid.Spikes.per.Burst.per.Electrode [2]: 0.07 µM
BMD Spheroid.Burst.Frequency [2]: 0.031 µM
BMD Spheroid.Spike.Amplitude.90th.Percentile [2]: 2.6 µM
Bioactivity trend over time for MFR, mean spike amplitude and burst frequency (qualitative) [2]: appeared to decrease activity
Difference of minimum potency between BrainSphere MEA assay and rNFA [2]: ≤ 0.5 log10 µM
Percent active [2]: 100%
hitc Mean.Spheroid.Burst.Duration [2]: 1
hitc Mean.Spheroid.Burst.ISI [2]: 1
hitc Mean.Spheroid.Burst.Peak.Firing.Rate [2]: 1
hitc Mean.Spheroid.Firing.Rate [2]: 1
hitc Mean.Spheroid.IBI [2]: 1
hitc Mean.Spheroid.Nonburst.ISI [2]: 1
hitc Mean.Spheroid.Spikes.per.Burst [2]: 1
hitc Mean.Spheroid.Spikes.per.Burst.per.Electrode [2]: 1
hitc Spheroid.Burst.Frequency [2]: 1
hitc Spheroid.Spike.Amplitude.90th.Percentile [2]: 1
EC (benchmark response 1.349 SD) ([2]; Homo sapiens, read-out: BMD Mean.Spheroid.Burst.ISI): 0.04 µM
EC (benchmark response 1.349 SD) ([2]; Homo sapiens, read-out: BMD Mean.Spheroid.Nonburst.ISI): 0.95 µM
AC50 ([2]; Homo sapiens, read-out: ac50 Mean.Spheroid.Burst.Duration): 0.14 µM
AC50 ([2]; Homo sapiens, read-out: ac50 Mean.Spheroid.Burst.ISI): 0.1 µM
AC50 ([2]; Homo sapiens, read-out: ac50 Mean.Spheroid.Burst.Peak.Firing.Rate): 0.12 µM
AC50 ([2]; Homo sapiens, read-out: ac50 Mean.Spheroid.Firing.Rate): 0.023 µM
AC50 ([2]; Homo sapiens, read-out: ac50 Mean.Spheroid.IBI): 0.91 µM
AC50 ([2]; Homo sapiens, read-out: ac50 Mean.Spheroid.Nonburst.ISI): 0.99 µM
AC50 ([2]; Homo sapiens, read-out: ac50 Mean.Spheroid.Spikes.per.Burst): 0.073 µM
AC50 ([2]; Homo sapiens, read-out: ac50 Mean.Spheroid.Spikes.per.Burst.per.Electrode): 0.094 µM
AC50 ([2]; Homo sapiens, read-out: ac50 Spheroid.Spike.Amplitude.90th.Percentile): 8.9 µM
AC50 ([2]; read-out: ac50 Mean.Spheroid.Burst.Duration): 0.145 µM
AC50 ([2]; read-out: ac50 Mean.Spheroid.Burst.ISI): 0.103 µM
AC50 ([2]; read-out: ac50 Mean.Spheroid.Burst.Peak.Firing.Rate): 0.115 µM
AC50 ([2]; read-out: ac50 Mean.Spheroid.Nonburst.ISI): 0.989 µM
AC50 ([2]; read-out: ac50 Spheroid.Spike.Amplitude.90th.Percentile): 8.93 µM
AC50 ([3]; read-out: ac50 CCTE_Shafer_MEA_dev_AB, rNFA mc5): 5.02 µM
